Here are results for four compounds from patent US9388208B2, “Pyrrolo[1,2-f][1,2,4]triazines useful for treating respiratory syncitial virus infections” (Gilead Sciences, Inc., priority 2013, dated 2016).

SMILES strings stand for the structures. pEC50: −log10 of the molar value. Where two headings read alike, the source gives them in different places.

Series [1] deals with RSV strain A2. Briefly: Anti-RSV activity, infectious cytopathic cell protection assay in HEp-2 cells. The series is classed as cell-based, Respiratory Syncytial Virus (RSV). The protocol:
Antiviral activity against RSV is determined using an infectious cytopathic cell protection assay in HEp-2 cells. In this assay, compounds inhibiting viral infection and/or replication produce a cytoprotective effect against the virus-induced cell killing that can be quantified using a cell viability reagent. The techniques used here are novel adaptations of methods described in published literature (Chapman et al., Antimicrob Agents Chemother. 2007, 51(9):3346-53.)
HEp-2 cells are obtained from ATCC (Manassas, VI) and maintained in MEM media supplemented with 10% fetal bovine serum and penicillin/streptomycin. Cells are passaged twice a week and kept at subconfluent stage. Commercial stock of RSV strain A2 (Advanced Biotechnologies, Columbia, Md.) is titered before compound testing to determine the appropriate dilution of the virus stock that generates desirable cytopathic effect in HEp-2 cells.
For antiviral tests, HEp-2 cells are grown in large cell culture flasks to near confluency but not fully so. The compounds to be tested are prediluted in DMSO in 384-well compound dilution plates, either in an 8 or 40 sample per plate standardized dose response format. 3-fold serial dilution increments of each test compound are prepared in the plates and test samples are transferred via acoustic transfer apparatus (Echo, Labcyte) at 100 nl per well into cell culture assay 384-well plates. Each compound dilution is transferred in single or quadruplicate samples into dry assay plates, which are stored until assay is ready to go. The positive and negative controls are laid out in opposite on ends of the plate in vertical blocks (1 column).
Subsequently, an infectious mixture is prepared using an appropriate dilution of virus stock previously determined by titration with cells at a density of 50,000/ml and 20 uL/well is added to test plates w/compounds via automation (uFlow, Biotek). Each plate includes negative and positive controls (16 replicates each) to create 0% and 100% virus inhibition standards, respectively. Following the infection with RSV, testing plates are incubated for 4 days in a 37° C. cell culture incubator. After the incubation, a cell viability reagent, Cell TiterGlo (Promega, Madison, Wis.) is added to the assay plates, which are incubated briefly, and a luminescent readout is measured (Envision, Perkin Elmer) in all the assay plates. The RSV-induced cytopathic effect, percentage inhibition, is determined from the levels of remaining cell viability. These numbers are calculated for each tested concentration relative to the 0% and 100% inhibition controls, and the EC50 value for each compound is determined by non-linear regression as a concentration inhibiting the RSV-induced cytopathic effect by 50%. Various potent anti-RSV tool compounds are used as positive controls for antiviral activity.

The test system of series [2] is MT-4 cells. Put plainly: Cytotoxicity assay in MT-4 cells. The series is classed as cell-based. Particulars: 5 days, Cell-Titer Glo. The protocol: (§1) The MT-4 cell line was obtained from the NIH AIDS Research and Reference Reagent Program (Germantown, Md.) and cultured in RPMI-1640 medium (Irvine Scientific, Santa Ana, Calif., Cat #9160) supplemented with 10% FBS, 100 units/mL penicillin, 100 units/mL streptomycin, and 2 mM L-Glutamine. The MT-4 cells were passaged twice per week to maintain cell densities below 0.6×10^6 cells/mL. Complete RPMI-1640 media containing 100× concentrations of 3-fold serially diluted compound, ranging from 26 nM to 530 μM, were stamped in quadruplicate into black 384-well plates. After compound addition, 2×10^3 MT-4 cells were added to each well using a MicroFlo liquid dispenser (BioTek, Winooski, Vt.) and the cells were cultured for 5 days at 37° C. in a 5% CO2 incubator. Following the incubation the cells were allowed to equilibrate to 25° C. and cell viability was determined by adding 25 μL of Cell-Titer Glo viability reagent. The mixture was incubated for 10 minutes at 25° C., and the luminescence signal was quantified on a Victor Luminescence plate reader. The CC50 value is defined as the concentration of compound that reduces cell viability by 50% as determined by the Cell-Titer Glo signal. The data were analyzed using Pipeline Pilot Plate Data Analytics Collection software (Version 7.0, Accelrys, San Diego, Calif.). CC50 values were calculated from a non-linear regression analysis using a 4-parameter sigmoidal dose-response equation: Y=Bottom+(Top−Bottom)/(1+10^[(Log CC50−X)*HillSlope]) where the Top and Bottom were fixed at 100% and 0% cell viability, respectively. CC50 values were calculated as the average±standard deviation of 3 independent experiments.

In series [3] the test system is HEp-2 cells. Put plainly: Cytotoxicity assay in HEp-2 cells. Particulars: uninfected HEp-2 cells, 4 days, CellTiter Glo. The series is classed as cell-based. The protocol:
(§2) Cytotoxicity of tested compounds is determined in uninfected HEp-2 cells in parallel with the antiviral activity using the cell viability reagent in a similar fashion as described before for other cell types (Cihlar et al., Antimicrob Agents Chemother. 2008, 52(2):655-65.). The same protocol as for the determination of antiviral activity is used for the measurement of compound cytotoxicity except that the cells are not infected with RSV. Instead, an uninfected cell mixture at the same density is added at 20 ul/well to plates containing prediluted compounds, also at 100 nl/sample. Assay plates are then incubated for 4 days followed by a cell viability test using the same CellTiter Glo reagent addition and measurement of luminescent readouts. Untreated cell and cells treated at 2 uM puromycin (Sigma, St. Louis, Mo.) serve as 100% and 0% cell viability control, respectively. The percent of cell viability is calculated for each tested compound concentration relative to the 0% and 100% controls and the CC50 value is determined by non-linear regression as a compound concentration reducing the cell viability by 50%.
(In general: Cellular ATP, detected with luciferase, serves as a proxy for viable cell number.)

Series [4] in a line: Cytotoxicity assay in HEp-2 cells. The series is classed as cell-based. Particulars: human, uninfected HEp-2 cells, CellTiter Glo. On the procedure: as §2
Series [5] is described as follows: Cytotoxicity assay in MT-4 cells. The series is classed as cell-based. Particulars: human, Cell-Titer Glo. On the procedure: as §1
[6] abbreviates: human respiratory syncytial virus, 96 h, HEp-2 cells infected with RSV A2, 4 days, Cell TiterGlo, read-out: EC50.

By pEC50 is commonly meant −log10 of the EC50, conventionally taken in molar units. As usually defined, the CC50 is the concentration that lowers cell viability or growth by half. A lower CC50 goes with greater toxicity to the cells. Take `N#C[C@]1(CO)O[C@@H](c2ccc3c(N)ncnn23)[C@H](O)[C@@H]1O` [Example 1, (2R,3S,4R,5S)-5-(4-aminopyrrolo[1,2-f][1,2,4]triazin-7-yl)-3,4-dihydroxy-2-(hydroxymethyl)tetrahydrofuran-2-carbonitrile]: the pEC50 in series [1] (HEp-2 cells infected with RSV A2, 4 days, Cell TiterGlo, read-out: EC50) was 5.14. For the same compound, the 50% cytotoxic concentration (CC50) in series [2] is greater than 53 µM; in series [3], greater than 50 µM.
The compound `CC(C)(C)C(=O)SCCOP(=O)(OCCSC(=O)C(C)(C)C)OC[C@@]1(C#N)O[C@@H](c2ccc3c(N)ncnn23)[C@H](O)[C@@H]1O` [Example 10, S,S′-2,2′-((((2R,3S,4R,5S)-5-(4-aminopyrrolo[1,2-f][1,2,4]triazin-7-yl)-2-cyano-3,4-dihydroxytetrahydrofuran-2-yl)methoxy)phosphoryl)bis(oxy)bis(ethane-2,1-diyl)bis(2,2-dimethylpropanethioate)] gave a pEC50 in series [1] (human respiratory syncytial virus, HEp-2, 96 h) of 6.00. In addition, the figures for the half-maximal cytotoxic concentration (CC50) in series [2] and in series [3] were 7.3 µM and 39 µM, respectively.
On to `[N-]=[N+]=N[C@]1(CO)O[C@@H](c2ccc3c(N)nc(F)nn23)[C@H](F)[C@@H]1O` [Example 22, (2R,3R,4R,5S)-5-(4-amino-2-fluoropyrrolo[2,1-f][1,2,4]triazin-7-yl)-2-azido-4-fluoro-2-(hydroxymethyl)tetrahydrofuran-3-ol], for which the pEC50 in series [1] (setting [6]) is 6.24; in series [1] (human respiratory syncytial virus, HEp-2 anti-RSV activity, read-out: EC50 (HEp-2 anti-RSV activity)), greater than 4.00. Further, the CC50 in series [2] was 32 µM. In series [4], this compound gave a CC50 at 4 days greater than 100 µM.
For `Nc1ncnn2c([C@@H]3O[C@@](CO)(CCl)[C@@H](O)[C@H]3O)ccc12` [Example 26, (2R,3S,4R,5S)-5-(4-aminopyrrolo[2,1-f][1,2,4]triazin-7-yl)-2-(chloromethyl)-2-(hydroxymethyl)tetrahydrofuran-3,4-diol], in series [1] (setting [6]), the negative logarithm of the EC50 (pEC50) is less than 4.30. Further, the CC50 in series [2] is greater than 57 µM. Further, in series [5], the CC50 at 5 days is greater than 53 µM. In series [4], this compound yielded a half-maximal cytotoxic concentration (CC50) at 4 days of 42 µM.
